US7846436B2, “Oligonucleotides and related compounds” (ChemGenes Corporation, priority 2003, dated 2010)
[dFC] = 2'-deoxy-2',2'-difluorocytidine (gemcitabine) nucleoside, linked at the 5' end of the ODN; d = 2'-deoxy (DNA)

Tests used:
[1] = Stability studies in pyridine and ammonia (TLC, Rf, UV, HPLC); format: physicochemical; settings: 37° C., 18 hrs
Protocol: The 2′-deoxy, 2′,2′-difluorocytidine derivatives, N-Bz-Gemcitabine and 5′-O-DMT-(N-bz) Gemcitabine prepared as above, were tested for their stability.

[2] = system: human colon adenocarcinoma cancerous cells HT29; assay: Flow cytometric DNA cell cycle profile, killing of colon cancer cells; format: cell-based; settings: for killing colon cancer cells HT29, compared with Gemcitabine (Gemzar) alone at equivalent dosages: 20 and 50 ng/ml Gemzar equivalent, 1 hour treatment, then 47 hours in normal medium without drugs, FIG. 13
[3] = system: human colon normal cells CCD112CoN; assay: Flow cytometric DNA cell cycle profile, killing of colon normal cells; format: cell-based; settings: 20 and 50 ng/ml Gemzar equivalent; 1 hour treatment, then 47 hours in normal medium without drugs; FIG. 14
Protocol: Monolayer cultures of human colon adenocarcinoma cancerous cells HT29 (American Type Culture Collection HTB-38), and human colon normal cells CCD112CoN (American Type Culture Collection CRL-1541) were grown in DMEM growth medium, or Dulbecco's modified Eagle's medium (DMEM; Sigma Chemical Co., St. Louis, Mo.) containing 10% fetal bovine serum (FBS; Biological Industries, Kibbutz, Israel). Incubation was in 10% CO2 at 37° C.
Gemzar (MW 299.5), or 2′-deoxy, 2′,2′-difluorocytidine hydrochloride for injection, as manufactured by Lilly France S.A., Fegersheim, France). Gemzar-ODNs were 2′-deoxy, 2′,2′-difluorocytidine (dFC, or difluorodeoxycitidine) linked to 4 oligodeoxynucleotide (ODN) sequences (synthesized by Chemgenes Corp, Wilmington, Mass.) as follows:
Aqueous stock solutions were prepared at the Gemzar or Gemzar-equivalent concentration of 0.2 mg/ml. Parallel monolayer cultures in log phase growth were treated for 1 hr at 37° C. with a final concentration of 0, 20 and 50 ng/ml of Gemzar or Gemzar equivalent from each of the 4 sequences of Gemzar-ODN that were synthesized. After the 1 hr pulse treatment with either Gemzar or Gemzar-ODNs, the cell cultures were reincubated for another 47 hr at 37° C. in normal DMEM growth medium without Gemzar or Gemzar-ODN. Control cultures were similar parallel cultures and had similar 1 hr and 47 hr reincubations, except without any Gemzar or Gemzar-ODN content. After the 47 hr reincubation, all cultures were evaluated at the same time for their DNA cell cycle profile using flow cytometry.
This was evaluated as previously described (Cell Death Differ. 4: 213-223, 1997; Exp. Cell Res. 240: 293-304, 1998). Propidium iodide (PI) stock solution was prepared at 50 ug/ml in tris buffered saline (1.21 mg/ml Tris, 0.584 mg/ml NaCl). Ribonuclease A (RNase A) was freshly added to the PI stock solution at 6 mg/ml immediately before use. Cells were harvested by scraping with a cell scraper and triturated to obtain a single cell suspension using a hypodermic syringe fitted with a 21-gauge needle. Cells were spun down at 1000 g for 5 min, and washed once in 5 ml phosphate buffered saline (PBS A, Oxoid, London, UK). Cells were then permeabilized by resuspending in 1% Bouin's fluid (15 parts 1.2% saturated aqueous picric acid, 5 parts formalin, 1 part glacial acetic acid) in PBS. Cells were repelleted and suspend in the PI-RNase for 1 hour over ice, before flow cytometric evaluation at ex/em 488/590 nm and 20,000 counts sample size. The Coulter Epics Elite ESP flow cytometer and Workstation program version 4.01 (Coulter Electronics, Hialeah, Fla.) were used with WinMDI version 2.8 (Scripps Research Institute, La Jolla, Calif.

Compound	killing colon cancer cells HT29, compared with Gemcitabine (Gemzar) alone at equivalent dosages [2]	killing colon normal cells CCD-112CO, compared with Gemcitabine (Gemzar) alone at equivalent dosages [3]	further results
O=C(Nc1ccn([C@@H]2O[C@H](CO)[C@@H](O)C2(F)F)c(=O)n1)c1ccccc1 [Compound II, N-Benzoyl-2′-deoxy, 2′,2′-difluorocytidine]	–	–	stability (breakdown) in pyridine and ammonia [1]: converted into 2′-deoxy, 2′,2′-difluorocytidine completely without any deterioration and byproduct formation; stability (breakdown) in pyridine and ammonia ([1]; listed as N-Bz-Gemcitabine): no breakdown of Gemcitabine, other than loss of the protecting group
COc1ccc(C(OC[C@H]2O[C@@H](n3ccc(NC(=O)c4ccccc4)nc3=O)C(F)(F)[C@@H]2O)(c2ccccc2)c2ccc(OC)cc2)cc1 [Compound III, 5′-O-DMT (N-Bz) 2′-deoxy, 2′,2′-difluorocytidine]	–	–	stability (breakdown) in pyridine and ammonia [1]: no breakdown of Gemcitabine, other than loss of the protecting group
Cl.Nc1ccn([C@@H]2O[C@H](CO)[C@@H](O)C2(F)F)c(=O)n1 [Gemzar, 2′-deoxy, 2′,2′-difluorocytidine hydrochloride, reference compound]	–	–	difference between the killing of cancer cells and normal cells ([2]; HT29 (FIG. 13) compared with CCD-112CO (FIG. 14) at equivalent dosages): only minimal difference
dFC GGA CG (NGGACG; sugars from the 5' end [dFC]1 d5, backbone, methylation of C and the base at N not given here) [GEMCITABINE-ODN-Seq. I.D.#7, Gemzar-ODN]	much more effectively than by treatment with GEMCITABINE alone	more effectively than by treatment with GEMCITABINE alone	–
dFC GGA CGT GGA ACG (NGGACGTGGAACG; sugars from the 5' end [dFC]1 d12, backbone, methylation of C and the base at N not given here) [GEMCITABINE-ODN-Seq. I.D.#9, Gemzar-ODN]	much more effectively than by treatment with GEMCITABINE alone	more effectively than by treatment with GEMCITABINE alone	–
dFC GGA GCT GGA ACG (NGGAGCTGGAACG; sugars from the 5' end [dFC]1 d12, backbone, methylation of C and the base at N not given here) [GEMCITABINE-ODN-Seq. I.D.#10, Gemzar-ODN]	much more effectively than by treatment with GEMCITABINE alone	more effectively than by treatment with GEMCITABINE alone	–
dFC GTG GAA CG (NGTGGAACG; sugars from the 5' end [dFC]1 d8, backbone, methylation of C and the base at N not given here) [GEMCITABINE-ODN-Seq. I.D.#8, Gemzar-ODN]	much more effectively than by treatment with GEMCITABINE alone	more effectively than by treatment with GEMCITABINE alone	–
